Test results published in patent publication US4051237A, “Glycopeptide antibiotics Bu-2231 A and B and process for producing same” (priority 1975, dated 1977).
Values after ≈ are worked out from the molar mass of the structure shown.

Columns and labels:
E. coli Juhl A15119 = test: MIC by two-fold agar dilution; assay type: cell-based; conditions: Mueller-Hinton agar, unit assumed
E. coli K-12 A9632 = test: MIC by two-fold agar dilution; assay type: cell-based; conditions: Mueller-Hinton agar, unit assumed
E. coli A20683 = test: MIC by two-fold agar dilution; assay type: cell-based; conditions: Mueller-Hinton agar, unit assumed
E. coli A20732 = test: MIC by two-fold agar dilution; assay type: cell-based; conditions: Mueller-Hinton agar, unit assumed
E. cloacae A21006 = test: MIC by two-fold agar dilution; assay type: cell-based; conditions: Mueller-Hinton agar, unit assumed
K. pneumoniae A20680 = test: MIC by two-fold agar dilution; assay type: cell-based; conditions: Mueller-Hinton agar, unit assumed
S. marcescens A20019 = test: MIC by two-fold agar dilution; assay type: cell-based; conditions: Mueller-Hinton agar, unit assumed
S. marcescens A20333 = test: MIC by two-fold agar dilution; assay type: cell-based; conditions: Mueller-Hinton agar, unit assumed
S. aureus 209P = test: MIC by two-fold agar dilution; assay type: cell-based; conditions: Mueller-Hinton agar, unit assumed
S. aureus #193 = test: MIC by two-fold agar dilution; assay type: cell-based; conditions: Mueller-Hinton agar, unit assumed
S. aureus BX-1633,A9606 = test: MIC by two-fold agar dilution; assay type: cell-based; conditions: Mueller-Hinton agar, unit assumed
M. flavus D12 = test: MIC by two-fold agar dilution; assay type: cell-based; conditions: Mueller-Hinton agar, unit assumed
B. cereus ATCC 10702A = test: MIC by two-fold agar dilution; assay type: cell-based; conditions: Mueller-Hinton agar, unit assumed
B. anthracis 115 = assay type: cell-based; conditions: Mueller-Hinton agar, unit assumed
Mycobacterium 607, D47 = test: MIC by two-fold agar dilution; assay type: cell-based; conditions: Medium #1001, unit assumed
C. albicans Nystatin-R = test: MIC by two-fold agar dilution; assay type: cell-based; conditions: Ca-2 C. albicans Nystatin-R; sabouraud agar; unit assumed
C. krusei #96 A15052 = test: MIC by two-fold agar dilution; assay type: cell-based; conditions: Ck-2 C. krusei #96 A15052; sabouraud agar; unit assumed
[1] = test system: C. tropicalis #125 A15051; test: MIC by two-fold agar dilution; assay type: cell-based; conditions: Ct-4 C. tropicalis #125 A15051; sabouraud agar; unit assumed
S. cerevisiae ATCC 9763 = test: MIC by two-fold agar dilution; assay type: cell-based; conditions: Sc-1 S. cerevisiae ATCC 9763; sabouraud agar; unit assumed
A. fumigatus IAM 2530 = test: MIC by two-fold agar dilution; assay type: cell-based; conditions: Af-1 A. fumigatus IAM 2530; sabouraud agar; unit assumed
Hormodendrum sp. = test: MIC by two-fold agar dilution; assay type: cell-based; conditions: Hy-1 Hormodendrum sp.; sabouraud agar; unit assumed
Verticillium sp. = test: MIC by two-fold agar dilution; assay type: cell-based; conditions: Vx-1 Verticillium sp.; sabouraud agar; unit assumed
Mucor sp. = test: MIC by two-fold agar dilution; assay type: cell-based; conditions: My-1 Mucor sp.; sabouraud agar; unit assumed
[2] = test system: F. moniliforme NRRL A2284; test: MIC by two-fold agar dilution; assay type: cell-based; conditions: Fm-1 F. moniliforme NRRL A2284; sabouraud agar; unit assumed
C. lunata ATCC 13432 = test: MIC by two-fold agar dilution; assay type: cell-based; conditions: Cl-1 C. lunata ATCC 13432; sabouraud agar; unit assumed
P. citrinum IAM 7008 = test: MIC by two-fold agar dilution; assay type: cell-based; conditions: Pt-1 P. citrinum IAM 7008; sabouraud agar; unit assumed
T. mentagrophytes D-155 = test: MIC by two-fold agar dilution; assay type: cell-based; conditions: Tm-1 T. mentagrophytes D-155; sabouraud agar; unit assumed
M. canis D-51 = test: MIC by two-fold agar dilution; assay type: cell-based; conditions: Mc-1 M. canis D-51; sabouraud agar; unit assumed
[3] = mice, single subcutaneous injection, 16 days
Description: The acute toxicity of copper-free Bu-2231 A and B was determined in mice by a single subcutaneous injection. Groups of 3 mice were used for each dose level and the body weight was recorded for 16 days.

Which MIC (E. coli Juhl A15119) does the source give for `Cc1c(N)nc([C@H](CC(N)=O)NC[C@@H](N)C(N)=O)nc1C(=O)N[C@H](C(=O)N[C@H](C)[C@@H](O)CC(=O)N[C@@H](C(=O)NC(O[C@@H]1O[C@@H](C)[C@@H](N)[C@@H](O)[C@H]1O)C(O)c1nc(-c2nc(C(=O)NCCCNCCCCN)cs2)cs1)[C@@H](C)O)C(O[C@@H]1O[C@@H](CO)[C@H](O)[C@@H](O)[C@@H]1O[C@H]1O[C@H](CO)[C@@H](O)[C@@H](OC(N)=O)[C@@H]1O)c1cnc[nH]1` (some centres unmarked) [Bu-2231 B Cu-free] here?
The MIC was 0.2 µg/mL (≈ 0.125 µM).

What about the MIC (E. coli K-12 A9632) of the same compound?
The MIC was 0.1 µg/mL (≈ 0.0624 µM).

And the MIC (E. coli A20683)?
Its MIC is 12.5 µg/mL (≈ 7.79 µM).

What about the MIC (E. coli A20732) of the same compound?
The MIC was 0.2 µg/mL (≈ 0.125 µM).

And the MIC (E. cloacae A21006)?
Its MIC is 6.3 µg/mL (≈ 3.93 µM).

What about the MIC (K. pneumoniae A20680) of the same compound?
The MIC was 25 µg/mL (≈ 15.6 µM).

What about the MIC (S. marcescens A20019) of the same compound?
The MIC was 0.8 µg/mL (≈ 0.499 µM).

What about the MIC (S. marcescens A20333) of the same compound?
Its MIC is 0.8 µg/mL (≈ 0.499 µM).

What about the MIC (S. aureus 209P) of the same compound?
Its MIC is 0.4 µg/mL (≈ 0.249 µM).

And the MIC (S. aureus #193)?
The MIC was 0.4 µg/mL (≈ 0.249 µM).

What about the MIC (S. aureus BX-1633,A9606) of the same compound?
Its MIC is 0.8 µg/mL (≈ 0.499 µM).

What about the MIC (M. flavus D12) of the same compound?
Its MIC is 0.4 µg/mL (≈ 0.249 µM).

And the MIC (B. cereus ATCC 10702A)?
Its MIC is 0.2 µg/mL (≈ 0.125 µM).

What about the MIC (B. anthracis 115) of the same compound?
The MIC was 0.1 µg/mL (≈ 0.0624 µM).

And the MIC (Mycobacterium 607, D47)?
The MIC was 0.05 µg/mL (≈ 0.0312 µM).

What about the MIC (C. albicans Nystatin-R) of the same compound?
The MIC was 0.8 µg/mL (≈ 0.499 µM).

And the MIC (C. krusei #96 A15052)?
Its MIC is 0.4 µg/mL (≈ 0.249 µM).

And the MIC [1]?
Its MIC is 0.8 µg/mL (≈ 0.499 µM).

And the MIC (S. cerevisiae ATCC 9763)?
The MIC was 0.2 µg/mL (≈ 0.125 µM).

What about the MIC (A. fumigatus IAM 2530) of the same compound?
Its MIC is 0.4 µg/mL (≈ 0.249 µM).

What about the MIC (Hormodendrum sp.) of the same compound?
The MIC was 0.2 µg/mL (≈ 0.125 µM).

And the MIC (Verticillium sp.)?
Its MIC is 1.6 µg/mL (≈ 0.998 µM).

What about the MIC (Mucor sp.) of the same compound?
The MIC was 3.1 µg/mL (≈ 1.93 µM).

What about the MIC [2] of the same compound?
Its MIC is 0.8 µg/mL (≈ 0.499 µM).

What about the MIC (C. lunata ATCC 13432) of the same compound?
Its MIC is 0.2 µg/mL (≈ 0.125 µM).

And the MIC (P. citrinum IAM 7008)?
The MIC was 1.6 µg/mL (≈ 0.998 µM).

What about the MIC (T. mentagrophytes D-155) of the same compound?
Its MIC is 6.3 µg/mL (≈ 3.93 µM).

And the MIC (M. canis D-51)?
The MIC was 0.8 µg/mL (≈ 0.499 µM).

And the LD50 [3]?
Its LD50 is over 50 mg/kg.
